Laboratory results: paper PMC7181131, “N-Pyrazinoyl Substituted Amino Acids as Potential Antimycobacterial Agents—the Synthesis and Biological Evaluation of Enantiomers” (Molecules, 2020)
In brackets after ≈: the same amount, converted by molar mass. Read-outs that look alike come from different tables or passages of the source.

How the values were obtained:
[1] = test system: Mtb H37Ra ITM-M006710 (ATCC 9431); experiment: Microplate Alamar Blue Assay (MABA) microdilution, Mtb H37Ra; type: cell-based, Mycobacterium tuberculosis; conditions: for MIC: Mycobacterium tuberculosis
[2] = test system: Mycobacterium aurum DSM 43999 (ATCC 23366); experiment: Microplate Alamar Blue Assay (MABA) microdilution, M. aurum; type: cell-based
[3] = test system: M. smegmatis DSM 43465 (ATCC 607); experiment: Microplate Alamar Blue Assay (MABA) microdilution, M. smegmatis; type: cell-based, Mycobacterium smegmatis
[4] = test system: Candida albicans CCM 8320 (ATCC 24433); experiment: Antifungal microdilution broth method, CA; type: cell-based
[5] = test system: Aspergillus fumigatus ATCC 204305; experiment: Antifungal microdilution broth method, AF; type: cell-based
[6] = test system: Aspergillus flavus CCM 8363; experiment: Antifungal microdilution broth method, AFla; type: cell-based
Description: 6. In vitro antifungal activity screening
Antifungal activity evaluation was performed using a microdilution broth method according to EUCAST instructions (The European Committee on Antimicrobial Susceptibility Testing) with slight modifications. Eight fungal strains (four yeast and four mould strains) were used for antifungal […]
and Trichophyton interdigitale CCM 8377 (ATCC 9533). Tested strains were purchased from the Czech Collection of Microorganisms (CCM, Brno, Czech Republic) or from the American Type Collection Cultures (ATCC, Manassas, VA, USA). Tested compounds were dissolved in DMSO and diluted in a twofold manner with RPMI 1640 medium, with glutamine and 2% glucose, buffered to pH 7.0 with MOPS (3-morpholinopropane-1-sulfonic acid). The final concentration of DMSO in the testing […]
Static incubation was performed in the dark and in humid atmosphere, at 35±2 °C, for 24 and 48 h (72 and 120 h for Trichophyton interdigitale respectively). Positive controls consisted of test microbe solely, while negative controls consisted of cultivation medium and DMSO. Visual inspection and metabolic activity indicator, Alamar Blue (ThermoFisher Scientific), were used for MIC endpoint evaluation. The internal quality standards, amphotericin B (Sigma-Aldrich) and voriconazole (Toronto research Chemicals, CA) were involved in assays (for MIC of standards see Table S5). All experiments were conducted in duplicates.
For the results to be valid, the difference in MIC for one compound determined from two parallel measurements must not be greater than one step on the dilution scale.

[7] = test system: Candida krusei CCM 8271 (ATCC 6258); experiment: Antifungal microdilution broth method, CK; type: cell-based; conditions: Pichia kudriavzevii
[8] = test system: Candida parapsilosis CCM 8260 (ATCC 22019); experiment: Antifungal microdilution broth method, CP; type: cell-based; conditions: Lodderomyces parapsilosis
[9] = test system: Lichtheimia corymbifera CCM 8077; experiment: Antifungal microdilution broth method, LC; type: cell-based
[10] = test system: Candida tropicalis CCM 8264 (ATCC 750); experiment: Antifungal microdilution broth method, CT; type: cell-based
[11] = test system: Trichophyton interdigitale CCM 8377 (ATCC 9533); experiment: Antifungal microdilution broth method, TI; type: cell-based
[12] = test system: Staphylococcus epidermidis CCM 4418 (ATCC 12228); experiment: Antibacterial microdilution broth method, SE; type: cell-based; conditions: 24 h
[13] = test system: Klebsiella pneumoniae CCM 4415 (ATCC 10031); experiment: Antibacterial microdilution broth method, KP; conditions: Klebsiella pneumoniae
[14] = pH 6.6, read-out: MIC Mtb H37Ra
[15] = pH 6, calculated from µg/mL, read-out: MIC Mtb H37Ra
[16] = internal quality control, 530 nm, inhibition of growth of 90%, 24 h (yeasts), read-out: MIC, spectrophotometric detection
[17] = internal quality control, naked eye, no visible growth, 24 h (yeasts), read-out: MIC, visual detection
[18] = ATCC204305, internal quality control, naked eye, no visible growth, 48 h (moulds), read-out: MIC, visual detection
[19] = CCM8363, internal quality control, naked eye, no visible growth, 48 h (moulds), read-out: MIC, visual detection
[20] = CCM8077, internal quality control, naked eye, no visible growth, 48 h (moulds), read-out: MIC, visual detection
[21] = internal quality control, naked eye, no visible growth, 48 h (moulds), read-out: MIC, visual detection
[22] = 24 h, read-out: MIC, spectrophotometric detection

CO[C@H]1/C=C/O[C@@]2(C)Oc3c(C)c(O)c4c(O)c(c(/C=N/N5CCN(C)CC5)c(O)c4c3C2=O)NC(=O)/C(C)=C\C=C\[C@H](C)[C@H](O)[C@@H](C)[C@@H](O)[C@@H](C)[C@H](OC(C)=O)[C@@H]1C [RIF, rifampicin, reference compound]
MIC ([1]; pH 6, read-out: MIC Mtb H37Ra): 0.0016 to 0.0062 µg/mL
MIC [1, 14]: 0.0039 to 0.0078 µg/mL
MIC [1, 15]: 0.0019 to 0.0075 µM
MIC ([2]; Mycolicibacterium aurum, pH 6; read-out: MIC M. aurum): 0.39 to 1.56 µg/mL (≈ 0.474 to 1.9 µM)
MIC ([2]; Mycolicibacterium aurum, pH 6.6; read-out: MIC M. aurum): 0.39 to 0.78 µg/mL (≈ 0.474 to 0.948 µM)
MIC ([3]; Mycolicibacterium smegmatis, pH 6; read-out: MIC M. smegmatis): 6.25 to 12.5 µg/mL (≈ 7.59 to 15.2 µM)
MIC ([3]; Mycolicibacterium smegmatis, pH 6.6; read-out: MIC M. smegmatis): 12.5 to 25 µg/mL (≈ 15.2 to 30.4 µM)

C[C@@H]1[C@H](O)[C@@H](C)/C=C/C=C/C=C/C=C/C=C/C=C/C=C/[C@H](O[C@@H]2O[C@H](C)[C@@H](O)[C@H](N)[C@@H]2O)C[C@@H]2O[C@](O)(C[C@@H](O)C[C@@H](O)[C@H](O)CC[C@@H](O)C[C@@H](O)CC(=O)O[C@H]1C)C[C@H](O)[C@H]2C(=O)O [amphotericin B, reference compound]
MIC [4, 16]: 0.5 µg/mL
MIC [4, 17]: 0.5 µg/mL
MIC ([5]; ATCC204305, internal quality control, 530 nm, inhibition of growth of 90%, 48 h (moulds), read-out: MIC, spectrophotometric detection): 1 µg/mL
MIC [5, 18]: 1 µg/mL
MIC ([6]; CCM8363, internal quality control, 530 nm, inhibition of growth of 90%, 48 h (moulds), read-out: MIC, spectrophotometric detection): 4 µg/mL
MIC [6, 19]: 4 µg/mL
MIC [7, 16]: 0.5 µg/mL
MIC [7, 17]: 0.5 µg/mL
MIC [8, 16]: 0.5 µg/mL
MIC [8, 17]: 0.5 µg/mL
MIC ([9]; CCM8077, internal quality control, 530 nm, inhibition of growth of 90%, 48 h (moulds), read-out: MIC, spectrophotometric detection): 0.125 µg/mL
MIC [9, 20]: 0.125 µg/mL
MIC [10, 16]: 1 µg/mL
MIC [10, 17]: 1 µg/mL
MIC ([11]; internal quality control, 530 nm, inhibition of growth of 90%, 48 h (moulds), read-out: MIC, spectrophotometric detection): 1 µg/mL
MIC [11, 21]: 1 µg/mL

C[C@@H](c1ncncc1F)[C@](O)(Cn1cncn1)c1ccc(F)cc1F [voriconazole, reference compound]
MIC [4, 22]: 0.03 µg/mL
MIC [4, 17]: > 16 µg/mL
MIC ([5]; ATCC204305, 48 h, read-out: MIC, spectrophotometric detection): 0.25 µg/mL
MIC [5, 18]: 1 µg/mL
MIC ([6]; CCM8363, 48 h, read-out: MIC, spectrophotometric detection): 1 µg/mL
MIC [6, 19]: > 16 µg/mL
MIC [7, 22]: 0.25 µg/mL
MIC [7, 17]: > 16 µg/mL
MIC [8, 22]: 0.03 µg/mL
MIC [8, 17]: > 16 µg/mL
MIC ([9]; CCM8077, 48 h, read-out: MIC, spectrophotometric detection): > 16 µg/mL
MIC [9, 20]: > 16 µg/mL
MIC [10, 22]: 0.0625 µg/mL
MIC [10, 17]: > 16 µg/mL
MIC ([11]; 48 h, read-out: MIC, spectrophotometric detection): > 16 µg/mL
MIC [11, 21]: > 16 µg/mL

CNC(C)C1CCC(N)C(OC2C(N)CC(N)C(OC3OCC(C)(O)C(NC)C3O)C2O)O1 (centres unmarked) [gentamicin, reference compound]
MIC ([12]; internal quality control, 530 nm, inhibition of growth of 95%, read-out: MIC, spectrophotometric detection): 0.125 µg/mL
MIC ([12]; internal quality control, naked eye, no visible growth, read-out: MIC, visual detection): 0.125 µg/mL
MIC ([13]; 24 h, read-out: MIC, visual detection): 0.5 µg/mL (≈ 1.05 µM)
MIC ([13]; ATCC10031|CCM4415, 24 h, read-out: MIC, spectrophotometric detection): 0.5 µg/mL (≈ 1.05 µM)

COC(=O)C(CC(C)C)NC(=O)c1cnc(Cl)cn1 (centres unmarked)
MIC Mtb H37Ra ([1]; pH 6): 3.91 µg/mL (≈ 13.7 µM)
MIC Mtb H37Ra ([1]; pH 6.6): 62.5 µg/mL (≈ 219 µM)

O=C(N[C@@H](CSCc1ccccc1)C(=O)O)c1cnccn1 [PC-L-SBn-Cys, S-benzyL-N-(pyrazine-2-carbonyl)-L-cysteine]
MIC ([1]; pH 6): 62.5 µg/mL
MIC ([1]; pH 6, read-out: MIC Mtb H37Ra): 62.5 µg/mL
MIC [1, 14]: ≥ 250 µg/mL
MIC [1, 15]: 197 µM
MIC ([4]; 24 h, read-out: MIC CA): > 250 µM
MIC ([12]; read-out: MIC SE): 250 µM
MIC ([5]; ATCC204305, 48 h, read-out: MIC AF): > 250 µM
MIC ([6]; CCM8363, read after 48 h (filamentous fungi), read-out: MIC AFla): > 250 µM
MIC ([2]; Mycolicibacterium aurum, pH 6, read-out: MIC M. aurum µg/mL): 125 µg/mL (≈ 394 µM)
MIC ([2]; Mycolicibacterium aurum, pH 6.6, read-out: MIC M. aurum): ≥ 250 µg/mL
MIC ([7]; 24 h, read-out: MIC CK): > 250 µM
MIC ([8]; 24 h, read-out: MIC CP): > 250 µM
MIC ([9]; CCM8077, 48 h, read-out: MIC LC): > 250 µM
MIC ([3]; Mycolicibacterium smegmatis, pH 6, read-out: MIC M. smegmatis µg/mL): ≥ 250 µg/mL
MIC ([3]; Mycolicibacterium smegmatis, pH 6.6, read-out: MIC M. smegmatis): ≥ 250 µg/mL
MIC ([10]; 24 h, read-out: MIC CT): > 250 µM
MIC ([11]; 48 h, read-out: MIC TI): > 250 µM
